Laboratory results as given in patent US10940218B2, “Treatment of meningiomas using phenylbenzothiazole, stilbene, biphenylalkyne, or pyridine derivatives” (MAYO FOUNDATION FOR MEDICAL EDUCATION AND RESEARCH, priority 2012, dated 2021).
“Also recorded” adds a separate entry of the source.

Experiments:
[1] = test system: meningioma tissue sections; assay: Fluorescent tissue staining of meningioma sections; assay type: binding, human; settings: for location of staining within meningioma cells: tissue sections
Text: (§1) The Department of Pathology, Mayo Clinic Rochester Tumor Tissue Registry, contains tumor samples procured by autopsy and surgery. Meningiomas, brain metastases and other tumors were identified by searching CoPath, a Mayo Clinic electronic pathology database of tumors collected since 1982. Tumor type was confirmed by viewing H&E stained slides under a light microscope.
(§2) Fresh cut 5 μm thick sections were used. Each staining run included normal brain and Alzheimer diseased brain as controls. Fluorescent tissue staining and microscopy was performed similar to methods previously described at Ikonomovic M D, Klunk W E, Abrahamson E E, et al., “Post-mortem correlates of in vivo PiB-PET amyloid imaging in a typical case of Alzheimer's disease”, Brain: A Journal Of Neurology 2008; 131:1630-45. Meningioma and other brain tumor sections were stained with 100 nM CN-PiB, 100 nM of unlabeled PiB or with saline alone as a negative control. The staining protocol was as follows: deparaffinization and rehydration, 0.25% KMnO4 incubation, water wash, 1% K2S2O5/1% Oxalic Acid incubation, water wash, PBS wash, 6-CN-PiB/PiB/saline incubation, PBS wash, NaCl, K2HPO4, and KH2PO4 incubation, water wash, mount coverslip, and storage at 4° C. in the dark until imaged. Slides were imaged within five days of staining. Immunohistochemical staining of meningiomas for beta amyloid protein was performed using NCL-B-Amyloid mouse anti-human antibody per standard clinical protocol.
(§3) Tissue stain images were obtained on a Zeiss 510 confocal microscope with excitation at 405 nm, a 420-480 bandpass filter, and the laser set at 15% power.
(§4) Images were obtained with a C-Apochromat 40×/1.2 W lens.

[2] = test system: other intracranial tumors and brain tissue sections; assay: Fluorescent tissue staining of other tumors and brain tissue; assay type: binding, human
Text: as §1, §2, §3, §4

meningiomas [3] = assay: PiB PET/CT imaging of meningiomas in patients; assay type: in vivo, human
Text: (§5) An Alzheimer's imaging database of two hundred forty-one patients was reviewed. […] All patients had been imaged by at least one MRI, as well as by FDG-PET/CT and PET/CT using the compound of formula (V). MRI reports of all patients were reviewed for possible meningiomas and other tumors. […] The diagnostic confidence of the radiologists interpreting the studies varied slightly, depending on factors such as tumor location and previous imaging. […] Tumors smaller than 7 millimeters are generally considered too small to be evaluated by PET or PET/CT. This is an excepted limitation of PET or PET/CT as a modality. […] None of the meningiomas in the series would be classified as atypical or aggressive based on MRI or CT imaging. One presumed extracranial schwannoma was seen, showing mild uptake on FDG-PET/CT, but no uptake on PET/CT using the compound of formula (V).
(§6) The radiologic interpretations of MRI, CT and FDG PET/CT scans from a population of 834 people who participated in the population-based Mayo Clinic Study of Aging (MCSA) from March 2006 through September 2011 were reviewed for the presence of tumors or other brain lesions. (See, Kantarci K, Lowe V, Przybelski S A, et al., “Magnetic resonance spectroscopy, {beta}-amyloid load, and cognition in a population-based sample of cognitively normal older adults”, Neurology 2011; 77:951-8; and Roberts R O, Geda Y E, Knopman D S, et al., “The Mayo Clinic Study of Aging: design and sampling, participation, baseline measures and sample characteristics”, Neuroepidemiology 2008; 30:58-69.) Participants were randomly selected for recruitment in the MCSA from a population of older adult residents of Olmsted County, Minn., USA. Those with neurological, psychological or systemic illnesses were not excluded. Individuals with dementia, or those unable to be imaged for medical reasons were excluded. All patients were imaged with C11-PiB PET/CT, F18-FDG PET/CT and non-contrast MRI at least once as part of the study. Any additional patient imaging and clinical history was then reviewed.
(§7) Tumors found in any of the subjects were then categorized as possible meningiomas or non-meningiomas based on the reading of the reporting neuroradiologist. Possible meningiomas were further reviewed as a group. A more strict set of criteria were applied to select a subset of the possible meningiomas that were designated “high-likelihood meningiomas” for further analysis and were defined by (1) tumors that were confirmed to be enhancing on diagnostic MRI (obtained separately for clinical purposes) and (2) tumors that had greater than two years of follow-up imaging confirming no growth or slow growth (1-2 mm per year). When the lead diagnosis of the identified tumor was metastasis, the diagnosis was confirmed by biopsy or autopsy. All tumors smaller than 5 mm thick were excluded, given they fall below the generally accepted lower limits of PET/CT resolution.
(§8) PET imaging was performed as part of the Mayo Clinic Study of Aging as previously described. (See Kantarci K, Lowe V, Przybelski S A, et al., “Magnetic resonance spectroscopy, {beta}-amyloid load, and cognition in a population-based sample of cognitively normal older adults”, Neurology 2011; 77:951-8.) PiB PET/CT, then FDG PET/CT were performed on the same day. PET/CT imaging was performed on a 690XT or DRX PET/CT tomograph (GE Healthcare). The PET sinograms were reconstructed using a fully-3D OSEM algorithm into a 30 cm field of view; the pixel size was 1.2 mm and the slice thickness was 3.27 mm (DRX) or 1.96 mm (690XT). CT imaging was obtained immediately prior to PET acquisition and used for attenuation correction. Cerebral PiB retention, a marker of amyloid deposition, was measured as previously described. (See Kantarci K, Lowe V, Przybelski S A, et al. “Magnetic resonance spectroscopy, {beta}-amyloid load, and cognition in a population-based sample of cognitively normal older adults”, Neurology 2011; 77:951-8.) […]

non-meningioma tumors [4] = assay: PiB PET/CT imaging of non-meningioma tumors and lesions in patients; assay type: in vivo, human
Text: as §5, §6, §7, §8

normal adjacent tissues = assay: PiB PET/CT activity of normal adjacent tissues; assay type: in vivo, human
Text: as §6
(§9) PET imaging was performed as part of the Mayo Clinic Study of Aging as previously described. (See Kantarci K, Lowe V, Przybelski S A, et al., “Magnetic resonance spectroscopy, {beta}-amyloid load, and cognition in a population-based sample of cognitively normal older adults”, Neurology 2011; 77:951-8.) PiB PET/CT, then FDG PET/CT were performed on the same day. PET/CT imaging was performed on a 690XT or DRX PET/CT tomograph (GE Healthcare). The PET sinograms were reconstructed using a fully-3D OSEM algorithm into a 30 cm field of view; the pixel size was 1.2 mm and the slice thickness was 3.27 mm (DRX) or 1.96 mm (690XT). CT imaging was obtained immediately prior to PET acquisition and used for attenuation correction. Cerebral PiB retention, a marker of amyloid deposition, was measured as previously described. (See Kantarci K, Lowe V, Przybelski S A, et al. “Magnetic resonance spectroscopy, {beta}-amyloid load, and cognition in a population-based sample of cognitively normal older adults”, Neurology 2011; 77:951-8.)

meningiomas [5] = assay: FDG PET/CT imaging of meningiomas; assay type: in vivo, human
Text: (§10) An Alzheimer's imaging database of two hundred forty-one patients was reviewed. […] MRI reports of all patients were reviewed for possible meningiomas and other tumors. […] Tumors smaller than 7 millimeters are generally considered too small to be evaluated by PET or PET/CT.
as §6, §9

non-meningioma tumors [6] = assay: FDG PET/CT imaging of non-meningioma tumors; assay type: in vivo, human
Text: as §10, §6
PET imaging was performed as part of the Mayo Clinic Study of Aging as previously described. (See Kantarci K, Lowe V, Przybelski S A, et al., “Magnetic resonance spectroscopy, {beta}-amyloid load, and cognition in a population-based sample of cognitively normal older adults”, Neurology 2011; 77:951-8.) PiB PET/CT, then FDG PET/CT were performed on the same day. PET/CT imaging was performed on a 690XT or DRX PET/CT tomograph (GE Healthcare). […] Cerebral PiB retention, a marker of amyloid deposition, was measured as previously described. […]

[7] = 100 nM stain, 5 μm sections, fluorescent microscopy
[8] = 16 high-likelihood meningiomas in 15 patients, C11-PiB PET/CT
[9] = Example 1, presumed extracranial schwannoma

CNc1ccc(-c2nc3ccc(C#N)cc3s2)cc1 [Formula 6-CN-PiB]
fluorescent staining of meningioma tissue [1, 7]: stained positively; also recorded: intense fluorescence | fluorescent staining of meningioma tissue ([1]; 100 nM stain, 5 μm sections, fluorescent microscopy, listed as highly-fluorescent version of the compound of Formula (V)): accumulate | staining brightness versus other intracranial tumors ([1]; all meningiomas (n=7) vs other intracranial tumors (n=6)): qualitatively brighter | fluorescent staining of meningioma tissue ([1]; multiple WHO grade I transitional type meningiomas): stained positive | location of staining within meningioma cells [1]: outside the nuclei, within the cytoplasm and/or cell membrane | location of staining within meningioma cells ([1]; listed as highly-fluorescent version of the compound of Formula (V)): within the nucleus of the cells of the meningiomas | fluorescent staining ([2]; amyloid laden cerebral cortex, Alzheimer's disease, beta-amyloid plaques (positive control)): very intense fluorescence | fluorescent staining ([2]; lung cancer brain metastasis): scattered fluorescence; also recorded: staining in the nuclei of the cells | fluorescent staining ([2]; normal brain gray matter): almost no fluorescence | fluorescent staining ([2]; schwannoma, FIG. 6 Panel E): only trace fluorescence | fluorescent staining ([2]; some other tumors): Moderate 6-CN-PiB binding

[11CH3]Nc1ccc(-c2nc3ccc(O)cc3s2)cc1 [PiB, [N-Methyl-^11C]2-(4′-methylaminophenyl)-6-hydroxybenzothiazole]
fluorescent staining of meningioma tissue [1, 7]: stained brightly positive; also recorded: unique staining pattern | fluorescent staining of meningioma tissue ([1]; 100 nM stain, 5 μm sections, fluorescent microscopy, listed as Formula (V)): accumulate | location of staining within meningioma cells [1]: within the nucleus of the cells of the meningiomas | SUVmax (meningiomas [3]; 2.0 cm thick meningioma, focused irradiation 1 month prior to PiB PET/CT): 3.6 | SUVmax range (meningiomas [3]; [8]): 1.4-3.6 | average SUVmax (by body weight) (meningiomas [3]; [8]): 2.2 | uptake on PET/CT (meningiomas [3]; Example 1, one of seven presumed meningiomas, small size (~4 mm thick)): some uptake | uptake on PET/CT (meningiomas [3]; Example 1, six of seven presumed meningiomas, 241 patient database): intense uptake | uptake on PET/CT (meningiomas [3]; Example 2, recurrent orbital meningioma and falx meningioma in one patient): avid uptake | uptake on PET/CT (meningiomas [3]; Example 2, total of ten presumed meningiomas): show uptake | repeat imaging result (meningiomas [3]; Example 3, one patient imaged two times, many months in between): the same positive results | uptake on PET/CT (meningiomas [3]; Example 3, thirteen out of thirteen presumed meningiomas >5 mm within field of view): positive uptake | uptake on PET/CT (meningiomas [3]; Example 3, three non-diagnostic presumed meningiomas): some positive uptake | repeat imaging SUVmax of meningioma (meningiomas [3]; Example 4, two patients imaged with PiB PET/CT more than once): stable or increasing SUVmax | activity at the meningioma on PET/CT (meningiomas [3]; FIG. 1, Patient #1, right tentorium cerebelli mass): intense activity | activity at the meningioma on PET/CT (meningiomas [3]; FIG. 2, Patient #4, tuberculum sellae and planum sphenoidale mass): intense activity | SUVmax (meningiomas [3]; FIG. 3, 2.6 cm thick meningioma of the right tentorium): 2.8 | SUVmax (meningiomas [3]; FIG. 4 meningioma, Panels A-C): 2.8 | SUVmax (meningiomas [3]; FIG. 4 meningioma, panels G-I): 3.6 | SUVmax (meningiomas [3]; FIG. 5 Panel A, sella/supracellar region meningioma): 1.7 | SUVmax (meningiomas [3]; FIG. 5 Panel C, internal auditory canal meningioma): 1.9 | SUVmax (meningiomas [3]; FIG. 5 Panel E, lateral ventricle meningioma): 2.1 | SUVmax (meningiomas [3]; FIG. 5 Panel G, post-surgical meningioma recurrence): 1.5 | PiB PET/CT result (meningiomas [3]; all 16 meningiomas identified by strict imaging criteria): PiB activity greater than normal adjacent tissues; also recorded: clearly diagnostically positive | amount of harmful radiation to the patient (meningiomas [3]; injection and PET/CT imaging): within acceptable limits for diagnostic purposes | uptake on PET/CT (non-meningioma tumors [4]; Example 1, other tumors): little to no uptake | uptake on PET/CT (non-meningioma tumors [4]; [9]): no uptake | uptake on PET/CT (non-meningioma tumors [4]; Example 3, 25 types of tumors and non-neoplastic lesions incl. schwannoma, hamartoma, ependymoma, pituitary adenoma): only background uptake or no uptake | SUVmax (non-meningioma tumors [4]; FIG. 4 melanoma metastasis): 0.9 | SUVmax (non-meningioma tumors [4]; FIG. 4 small cell lung cancer metastasis): 1.1 | SUVmax (non-meningioma tumors [4]; FIG. 5 Panel B, pituitary macroadenoma): 0.9 | SUVmax (non-meningioma tumors [4]; FIG. 5 Panel D, schwannoma): 0.8 | SUVmax (non-meningioma tumors [4]; FIG. 5 Panel F, ependymoma): 0.4 | SUVmax (non-meningioma tumors [4]; FIG. 5 Panel H, postoperative changes/scarring): 0.6 | PiB PET/CT result (non-meningioma tumors [4]; all non-meningioma intracranial tumors (metastases, pituitary macroadenomas, schwannomas, ependymoma)): PiB activity equal or less than normal adjacent tissue; also recorded: negative | SUVmax (non-meningioma tumors [4]; all non-meningioma intracranial tumors identified): ≤ 1.1 | SUVmax (non-meningioma tumors [4]; bony lesions (hemangiomas, fibrous dysplasia, hyperostosis frontalis, osteoma)): < 1.0 | SUVmax (non-meningioma tumors [4]; extra-cranial tumors (sinus polyps, mucus retention cysts, mucocele, Warthin's tumors, inverted papilloma)): < 1.2 | PiB PET/CT result (non-meningioma tumors [4]; intracranial metastases (melanoma, small cell lung cancer)): negative with low activity | PiB activity (non-meningioma tumors [4]; non-tumorous lesions (strokes, arachnoid cysts, multiple sclerosis lesions)): only trace PiB activity | SUVmax (non-meningioma tumors [4]; vascular lesions (aneurysms, telangiectasias, cavernomas, venous angiomas)): ≤ 1.2 | average SUVmax (normal adjacent tissues; nearby normal bone): 0.6 | average SUVmax (normal adjacent tissues; nearby normal grey matter): 1.1 | PiB activity (normal adjacent tissues; nearby normal white matter, FIG. 5): high level of nonspecific PiB activity | average background SUVmax (normal adjacent tissues; surrounding cerebrospinal fluid): 0.2

Fluorodeoxyglucose [FDG]
uptake on FDG-PET/CT (meningiomas [5]; Example 1, four meningiomas): no uptake | uptake on FDG-PET/CT (meningiomas [5]; Example 1, two meningiomas): mild uptake | FDG activity (meningiomas [5]; FIG. 3 meningioma): only trace FDG activity | FDG PET activity (meningiomas [5]; FIG. 4 meningioma, panels G-I): increased FDG PET activity | FDG activity (meningiomas [5]; seven of the 16 meningiomas): moderate to high FDG activity | uptake on FDG-PET/CT (non-meningioma tumors [6]; [9]): mild uptake | FDG PET/CT result (non-meningioma tumors [6]; FIG. 5 pituitary macroadenoma): positive | FDG PET activity (non-meningioma tumors [6]; melanoma and small cell lung cancer metastases): increased FDG PET activity; also recorded: positive
